Results on 17 compounds are retold here after patent publication US6890936B2, “Muscarinic antagonists” (Schering Corporation, priority 2002, dated 2005).

Each structure is given as a SMILES string. Some results are limits rather than exact numbers.

Holding throughout (conditions): membranes from stably transfected CHO cells, 3H-QNB 100-200 pM, 25° C., 90 minutes
Assay [1] addresses T1, cloned human M1 muscarinic receptor (Homo sapiens, UniProt P11229).
T1 sequence (P11229 1-460): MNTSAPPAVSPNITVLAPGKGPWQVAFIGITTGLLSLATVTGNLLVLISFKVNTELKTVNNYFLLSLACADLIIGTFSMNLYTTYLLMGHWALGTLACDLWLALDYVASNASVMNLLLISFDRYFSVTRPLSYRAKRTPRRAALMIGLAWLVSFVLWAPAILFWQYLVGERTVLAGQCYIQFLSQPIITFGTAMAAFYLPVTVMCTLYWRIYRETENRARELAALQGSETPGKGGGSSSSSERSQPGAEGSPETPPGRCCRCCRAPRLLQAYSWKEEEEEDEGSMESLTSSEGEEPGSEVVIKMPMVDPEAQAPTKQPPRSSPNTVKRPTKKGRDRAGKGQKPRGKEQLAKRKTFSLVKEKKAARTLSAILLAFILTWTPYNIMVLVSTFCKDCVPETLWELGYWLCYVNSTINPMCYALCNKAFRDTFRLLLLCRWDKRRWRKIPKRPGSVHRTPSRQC
The assay can be described thus: Muscarinic binding activity, 3H-QNB displacement, M1.

For assay [2], the target named is T2, cloned human M2 muscarinic receptor (Homo sapiens, UniProt P08172).
T2 sequence (P08172 1-466): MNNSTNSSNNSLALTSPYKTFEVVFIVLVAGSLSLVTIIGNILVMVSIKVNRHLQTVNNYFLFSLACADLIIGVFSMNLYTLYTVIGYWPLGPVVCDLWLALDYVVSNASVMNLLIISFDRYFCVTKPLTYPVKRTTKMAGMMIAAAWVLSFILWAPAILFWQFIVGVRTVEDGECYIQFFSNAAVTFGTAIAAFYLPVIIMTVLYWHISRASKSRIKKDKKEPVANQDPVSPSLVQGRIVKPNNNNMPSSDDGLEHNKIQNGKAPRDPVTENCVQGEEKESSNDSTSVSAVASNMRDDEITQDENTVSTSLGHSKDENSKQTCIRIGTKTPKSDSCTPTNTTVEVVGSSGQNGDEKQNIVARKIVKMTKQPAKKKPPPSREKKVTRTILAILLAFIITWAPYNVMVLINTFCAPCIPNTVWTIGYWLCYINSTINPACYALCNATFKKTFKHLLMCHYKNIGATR
Kind of assay: Muscarinic binding activity, 3H-QNB displacement, M2.

The target in assay [3] is cloned human M3 muscarinic receptor (Homo sapiens, UniProt P20309). Kind of assay: Muscarinic binding activity, 3H-QNB displacement, M3.
cloned human M3 muscarinic receptor, sequence (P20309 whole entry): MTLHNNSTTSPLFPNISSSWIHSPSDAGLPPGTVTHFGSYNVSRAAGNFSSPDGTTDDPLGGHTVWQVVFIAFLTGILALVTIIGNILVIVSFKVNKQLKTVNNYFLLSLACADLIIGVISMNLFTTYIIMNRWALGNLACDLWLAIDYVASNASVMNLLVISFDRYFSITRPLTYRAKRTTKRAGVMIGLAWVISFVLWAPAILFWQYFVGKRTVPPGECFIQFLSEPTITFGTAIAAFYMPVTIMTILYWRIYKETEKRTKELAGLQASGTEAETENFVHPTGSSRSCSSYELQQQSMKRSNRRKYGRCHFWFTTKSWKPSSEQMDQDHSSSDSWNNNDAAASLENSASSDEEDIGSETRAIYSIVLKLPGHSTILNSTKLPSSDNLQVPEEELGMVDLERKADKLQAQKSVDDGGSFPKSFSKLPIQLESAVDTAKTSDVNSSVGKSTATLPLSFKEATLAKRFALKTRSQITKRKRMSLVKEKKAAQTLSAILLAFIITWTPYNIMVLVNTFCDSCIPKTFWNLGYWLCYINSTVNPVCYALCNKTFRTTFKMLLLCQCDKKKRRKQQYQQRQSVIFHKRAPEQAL
In assay [4] the target is T3, cloned human M4 muscarinic receptor (Homo sapiens, UniProt P08173).
T3 sequence (P08173 1-479): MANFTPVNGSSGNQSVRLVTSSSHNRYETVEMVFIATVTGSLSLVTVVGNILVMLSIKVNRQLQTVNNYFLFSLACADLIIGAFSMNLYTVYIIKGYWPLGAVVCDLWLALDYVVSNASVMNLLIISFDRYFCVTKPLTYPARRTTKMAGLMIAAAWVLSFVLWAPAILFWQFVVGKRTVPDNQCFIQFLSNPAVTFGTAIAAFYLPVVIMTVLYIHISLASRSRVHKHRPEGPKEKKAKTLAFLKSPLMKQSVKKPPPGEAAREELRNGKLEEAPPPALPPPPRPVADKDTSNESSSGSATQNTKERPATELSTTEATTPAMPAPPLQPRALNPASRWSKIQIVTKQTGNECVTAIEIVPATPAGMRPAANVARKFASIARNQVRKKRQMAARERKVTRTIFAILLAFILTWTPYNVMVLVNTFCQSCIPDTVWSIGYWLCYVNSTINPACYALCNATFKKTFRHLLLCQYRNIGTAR
Kind of assay: Muscarinic binding activity, 3H-QNB displacement, M4.

Assay [5] concerns the target T4, cloned human M5 muscarinic receptor (Homo sapiens, UniProt P08912).
T4 sequence (P08912 1-532): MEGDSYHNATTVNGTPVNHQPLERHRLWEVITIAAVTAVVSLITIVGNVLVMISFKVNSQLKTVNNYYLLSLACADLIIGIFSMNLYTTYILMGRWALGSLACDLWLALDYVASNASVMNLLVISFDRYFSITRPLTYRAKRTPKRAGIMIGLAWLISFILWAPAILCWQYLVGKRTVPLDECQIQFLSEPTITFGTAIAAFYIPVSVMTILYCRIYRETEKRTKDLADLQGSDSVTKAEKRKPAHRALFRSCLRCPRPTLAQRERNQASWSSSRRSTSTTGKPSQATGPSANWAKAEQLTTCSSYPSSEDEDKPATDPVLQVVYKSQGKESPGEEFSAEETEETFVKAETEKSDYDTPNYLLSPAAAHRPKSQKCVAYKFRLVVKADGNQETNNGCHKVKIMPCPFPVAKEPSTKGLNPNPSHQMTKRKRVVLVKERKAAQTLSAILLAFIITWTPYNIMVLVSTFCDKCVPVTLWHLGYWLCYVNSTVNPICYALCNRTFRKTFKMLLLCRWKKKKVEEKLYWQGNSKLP
The assay can be described thus: Muscarinic binding activity, 3H-QNB displacement, M5.

Take `Cc1cccc(C(=O)N2CCC(N3CCC4(CC3)C(c3ccc(OC(C)C)cc3)C4(Cl)Cl)CC2)c1Cl` (stereo not shown) [Compound 1]: the Ki (usually the equilibrium dissociation constant of an inhibitor or competing ligand from its target) in assay [1] is over 990 nM; in assay [2], over 1400 nM; in assay [3], over 1000 nM; in assay [4] it was over 1000 nM; in assay [5], 891 nM.
Consider `Cc1c(Cl)cccc1C(=O)N1CCC(N2CCC3(CC2)C(c2ccc(OC(C)C)cc2)C3(Cl)Cl)CC1` (stereo not shown) [Compound 2], for which the values for the Ki in assay [1] and in assay [2] were 982 nM and over 1400 nM, respectively.
For `CC(C)Oc1ccc(C2C(Cl)(Cl)C23CCN(C2CCN(C(=O)c4cccc(Cl)c4Cl)CC2)CC3)cc1` (stereo not shown) [Compound 3], the Ki in assay [1] was over 996 nM; in assay [2] it was over 1440 nM; in assay [3], over 1000 nM; in assay [4], over 1000 nM; in assay [5], over 1500 nM.
For the compound `Cc1cccc(C(=O)N2CCC(N3CCC4(CC3)C(c3ccc(OC(C)C)cc3)C4(Cl)Cl)CC2)c1N` (stereo not shown) [Compound 4], the inhibition constant (Ki) in assay [1] is over 990 nM; in assay [2] it was 77 nM; in assay [3], over 1000 nM; in assay [4], over 1000 nM; in assay [5] it was 96 nM.
On to `CC(C)Oc1ccc(C2C(Cl)(Cl)C23CCN(C2CCN(C(=O)c4cccc(Cl)c4N)CC2)CC3)cc1` (stereo not shown) [Compound 5], for which the Ki in assay [1] was over 990 nM; in assay [2], 1390 nM; in assay [3] it was over 1000 nM; in assay [4] it was over 1000 nM; in assay [5], 786 nM.
`CC(C)Oc1ccc(C2C(Cl)(Cl)C23CCN(C2CCN(C(=O)c4cccc(F)c4N)CC2)CC3)cc1` (stereo not shown) [Compound 6]: the Ki in assay [1] is over 990 nM; in assay [2], 1200 nM; in assay [3] it was over 1000 nM; in assay [4], over 1000 nM; in assay [5], 42 nM.
On to `Cc1c(Cl)cccc1C(=O)N1CCC(N2CCC3(CC2)CC3c2ccc(OC(C)C)cc2)CC1` (stereo not shown) [Compound 7], for which the Ki in assay [1] is over 900 nM; in assay [2], over 1380 nM; in assay [3], over 1000 nM; in assay [4], over 1000 nM; in assay [5], over 1500 nM.
Regarding `CC(C)Oc1ccc(C2CC23CCN(C2CCN(C(=O)c4cccc(Cl)c4Cl)CC2)CC3)cc1` (stereo not shown) [Compound 8], the Ki in assay [1] is 819 nM; in assay [2], 607 nM; in assay [3], over 1000 nM; in assay [4] it was over 1000 nM; in assay [5] it was over 1500 nM.
As for `CC(C)Oc1ccc(C2CC23CCN(C2CCN(C(=O)c4cccc(Cl)c4N)CC2)CC3)cc1` (stereo not shown) [Compound 9], the Ki in assay [1] is over 900 nM; in assay [2] it was 490 nM; in assay [3] it was over 1000 nM; in assay [4], over 1000 nM; in assay [5], over 1500 nM.
Consider `CC(C)Oc1ccc(C2(C)CC23CCN(C2CCN(C(=O)c4cccc(Cl)c4Cl)CC2)CC3)cc1` (stereo not shown) [Compound 10], for which the Ki in assay [1] was 1010 nM; in assay [2], 149 nM; in assay [3], over 1200 nM; in assay [4], 261 nM; in assay [5], 995 nM.
Take `CC(C)Oc1ccc(C2(C)CC23CCN(C2CCN(C(=O)c4cccc(Cl)c4N)CC2)CC3)cc1` (stereo not shown) [Compound 11]: the Ki was found to be 600 nM in assay [1]; 49 nM in assay [2]; 691 nM in assay [3]; 151 nM in assay [4]; 619 nM in assay [5].
For `Cc1c(Cl)cccc1C(=O)N1CCC(N2CCC3(CC2)CC3(C)c2ccc(OC(C)C)cc2)CC1` (stereo not shown) [Compound 12], in that order: 744 nM, 113 nM, over 1200 nM, 272 nM and 1210 nM.
Turning to `CC(C)Oc1ccc(C2C(Cl)(Cl)C23CCN(C2CCN(C(=O)c4ccc(F)c5ccccc45)CC2)CC3)cc1` (stereo not shown) [Compound 13], the Ki in assay [1] was over 1200 nM; in assay [2], over 1900 nM.
For `CC(C)Oc1ccc(C2C(Cl)(Cl)C23CCN(C2CCN(C(=O)c4cccc5c(Br)cccc45)CC2)CC3)cc1` (stereo not shown) [Compound 14], in that order: over 1200 nM and over 1900 nM.
On to `CCCS(=O)(=O)N1CCC(N2CCC3(CC2)C(c2ccc(OC(C)C)cc2)C3(Cl)Cl)CC1` (stereo not shown) [Compound 15], for which the Ki in assay [1] is over 1200 nM; in assay [2] it was 481 nM.
In the case of `CC(C)Oc1ccc(C2C(Cl)(Cl)C23CCN(C2CCN(S(=O)(=O)c4cccc5ccccc45)CC2)CC3)cc1` (stereo not shown) [Compound 16], the Ki in assay [1] was over 1200 nM; in assay [2], 1840 nM.
The like results for `Cc1cccc(C)c1C(=O)N1CCC(N2CCC3(CC2)C(c2ccc(OC(C)C)cc2)C3(Cl)Cl)CC1` (stereo not shown) [Compound 17] were, in that order, over 1200 nM and over 1900 nM.
